Results as given in patent US20090029983A1, “NOVEL HETEROCYCLIC COMPOUNDS HAVING ANTI-HBV ACTIVITY” (priority 2005, published 2009).

Each molecule was assayed on HBV (assay: HBV screening assay (viral DNA in baculovirus-HBV transduced HepG2 cells)). Conditions: Hepatitis B virus, HepG2, 72 h, read-out: EC50 (antiviral activity), HBV-transduced HepG2 cells, three days with compound, viral DNA by ELISA.
Assay type: cell-based
Experimental: HepG2 cells were transduced using a baculovirus to deliver the HBV genome essentially as previously described (Delaney et al. in Hepatology 1998; 28: 1134-1146). Transduced cells were cultured in supplemented EMEM media with 10% fetal bovine serum in a 5% CO2 incubator at 37° C. for three days in the presence of test compounds. The cells were lysed in a buffer containing 0.5% NP-40 and […] proteinase K. A solid-phase hybridization was performed to capture the viral DNA and to label the target DNA with Digoxigenin-labeled DNA probes. The viral DNA was detected by ELISA, using horseradish peroxidase-conjugated anti-digoxigenin antibodies.
The EC50 values were determined using ExcelFit software from the inhibition values of a titration curve for each compound. For CC50 determinations, the same titration of compounds was co-cultured with non-transduced HepG2 for three days under the conditions described above. The Promega CellTiter 96 Aqueous One Solution Cell Proliferation Assay was used to measure cell proliferation/viability. The CC50 values were determined using ExcelFit software from the inhibition values of the titration curve for each compound.

SMILES	EC50
COC1CCCCN1CCCN1Cc2nc3sc(C(N)=O)c(N)c3c(-c3cccs3)c2C1 (stereo not shown) [Compound 26, 3-Amino-6-[3-(2-methoxy-piperidin-1-yl)-propyl]-4-thiophen-2-yl-6,7-dihydro-5H-1-thia-6,8-diaza-s-indacene-2-carboxylic acidamide]	> 10 µM
CCCCNC(=S)N1Cc2nc3sc(C(N)=O)c(N)c3c(-c3cccs3)c2C1 [Compound 82, 3-Amino-6-butylthiocarbamoyl-4-thiophen-2-yl-6,7-dihydro-5H-1-thia-6,8-diaza-s-indacene-2-carboxylic acid amide]	1 to 10 µM
NC(=O)c1sc2nc3c(c(-c4cccs4)c2c1N)CN(C(=S)NC1CCCC1)C3 [Compound 81, 3-Amino-6-cyclopentylthiocarbamoyl-4-thiophen-2-yl-6,7-dihydro-5H-1-thia-6,8-diaza-s-indacene-2-carboxylic acid amide]	1 to 10 µM
COc1cccc(C2CCCc3c2nc2sc(C(N)=O)c(N)c2c3-c2cccs2)c1 (stereo not shown) [Compound 67, 3-Amino-8-(3-methoxy-phenyl)-4-thiophen-2-yl-5,6,7,8-tetrahydro-thieno[2,3-b]quinoline-2-carboxylic acid amide]	> 10 µM
NC(=O)c1sc2nc3c(c(-c4cccs4)c2c1N)C(=O)CCC3 [Compound 76, 3-Amino-4-(thiophen-2-yl)-5-oxo-5,6,7,8-tetrahydro-thieno[2,3-b]quinoline-2-carboxylic acid amide]	1 to 10 µM
CCCCCCC1CCc2c1nc1sc(C(N)=O)c(N)c1c2-c1cccs1 (stereo not shown) [Compound 59, 3-Amino-7-hexyl-4-thiophen-2-6,7-dihydro-5H-cyclopenta[b]thieno[3,2-e]pyridine-2-carboxylic acid amide]	> 10 µM
Cc1ccc(CNC(=O)CC2CCc3c2nc2sc(C(N)=O)c(N)c2c3-c2cccs2)o1 (stereo not shown) [Compound 43, 3-Amino-7-{[(5-methyl-furan-2-ylmethyl)-carbamoyl]-methyl}-4-thiophen-2-yl-6,7-dihydro-5H-cyclopenta[b]thieno[3,2-e]pyridine-2-carboxylic acid amide]	> 10 µM
NC(=O)c1sc2nc3c(c(-c4cccs4)c2c1N)CCCC3C1CCCCC1 (stereo not shown) [Compound 68, 3-Amino-8-cyclohexyl-4-thiophen-2-yl-5,6,7,8-tetrahydro-thieno[2,3-b]quinoline-2-carboxylic acid amide]	> 10 µM
CC(C)CC1CCCc2c1nc1sc(C(N)=O)c(N)c1c2-c1cccs1 (stereo not shown) [Compound 63, 3-Amino-8-isobutyl-4-thiophen-2-yl-5,6,7,8-tetrahydro-thieno[2,3-b]quinoline-2-carboxylic acid amide]	1 to 10 µM
NC(=O)c1sc2nc3c(c(-c4cccs4)c2c1N)CN(C(=S)NCCN1CCOCC1)C3 [Compound 93, 3-Amino-6-(2-morpholin-4-yl-ethylthiocarbamoyl)-4-thiophen-2-yl-6,7-dihydro-5H-1-thia-6,8-diaza-s-indacene-2-c arboxylic acid amide]	> 10 µM
COC1CCCc2c1nc1sc(C(N)=O)c(N)c1c2-c1cccs1 (stereo not shown) [Compound 69, 3-Amino-8-methoxy-4-thiophen-2-yl-5,6,7,8-tetrahydro-thieno[2,3-b]quinoline-2-carboxylic acid amide]	< 1 µM
NC(=O)c1sc2nc3c(c(-c4cccs4)c2c1N)CN(C1=NCCS1)C3 [Compound 95, 3-Amino-6-(4,5-dihydro-thiazol-2-yl)-4-thiophen-2-yl-6,7-dihydro-5H-1-thia-6,8-diaza-s-indacene-2-carboxylic acid amide]	< 1 µM
Cc1ccsc1-c1c2c(nc3sc(C(N)=O)c(N)c13)CCCC2=O [Compound 75, 3-Amino-4-(3-methyl-thiophen-2-yl)-5-oxo-5,6,7,8-tetrahydro-thieno[2,3-b]quinoline-2-carboxylic acid amide]	< 1 µM
NC(=O)c1sc2nc3c(c(-c4cccs4)c2c1N)CN(CCCCl)C3 [Compound 3, 3-Amino-6-(3-chloro-propyl)-4-thiophen-2-yl-6,7-dihydro-5H-1-thia-6,8-diaza-s-indacene-2-carboxylic acid amide]	1 to 10 µM
NC(=O)c1sc2nc3c(c(-c4cccs4)c2c1N)CCNC3 [Compound 29, 3-Amino-4-thiophen-2-yl-5,6,7,8-tetrahydro-1-thia-7,9-diaza-cyclopenta[b]naphthalene-2-carboxylic acidamide]	< 1 µM
C=CCC1CCCc2c1nc1sc(C(N)=O)c(N)c1c2-c1cccs1 (stereo not shown) [Compound 70, 8-Allyl-3-amino-4-thiophen-2-yl-5,6,7,8-tetrahydro-thieno[2,3-b]quinoline-2-carboxylic acid amide]	1 to 10 µM
NC(=O)c1sc2nc3c(c(-c4ccc(Cl)cc4)c2c1N)C(=O)CCC3 [Compound 77, 3-Amino-4-(4-chloro-phenyl)-5-oxo-5,6,7,8-tetrahydro-thieno[2,3-b]quinoline-2-carboxylic acid amide]	> 10 µM
Cc1ccc(NC(=S)N2Cc3nc4sc(C(N)=O)c(N)c4c(-c4cccs4)c3C2)cc1 [Compound 83, 3-Amino-4-thiophen-2-yl-6-p-tolylthiocarbamoyl-6,7-dihydro-5H-1-thia-6,8-diaza-s-indacene-2-carboxylic acidamide]	> 10 µM
CCOC(=O)C1CCN(C(=O)CC2CCc3c2nc2sc(C(N)=O)c(N)c2c3-c2cccs2)CC1 (stereo not shown) [Compound 56, 1-[2-(3-Amino-2-carbamoyl-4-thiophen-2-yl-6,7-dihydro-5H-cyclopenta[b]thieno[3,2-e]pyridin-7-yl)-acetyl]-piperidine-4-carboxylic acid ethyl ester]	> 10 µM
CC(=O)N1CCc2nc3sc(C(N)=O)c(N)c3c(-c3cccs3)c2C1 [Compound 34, 6-Acetyl-3-amino-4-thiophen-2-yl-5,6,7,8-tetrahydro-thieno[2,3-b][1,6]naphthyridine-2-carboxylic acid amide]	> 10 µM
CC(O)CNCCCN1Cc2nc3sc(C(N)=O)c(N)c3c(-c3cccs3)c2C1 (stereo not shown) [Compound 28, 3-Amino-6-[3-(2-hydroxy-propylamino)-propyl]-4-thiophen-2-yl-6,7-dihydro-5H-1-thia-6,8-diaza-s-indacene-2-carboxylic acidamide]	> 10 µM
NC(=O)c1sc2nc3c(c(-c4cccs4)c2c1N)CCC3CC(=O)NCCc1ccccn1 (stereo not shown) [Compound 46, 3-Amino-7-[(2-pyridin-2-yl-ethylcarbamoyl)-methyl]-4-thiophen-2-yl-6,7-dihydro-5H-cyclopenta[b]thieno[3,2-e]pyridine-2-carboxylic acid amide]	> 10 µM
NC(=O)c1sc2nc3c(c(-c4cccs4)c2c1N)CN(CC1CCCCC1)C3 [Compound 11, 3-Amino-6-cyclohexylmethyl-4-thiophen-2-yl-6,7-dihydro-5H-1-thia-6,8-diaza-s-indacene-2-carboxylic acid amide]	1 to 10 µM
NC(=O)c1sc2nc3c(c(-c4cccs4)c2c1N)CCC3CC(=O)NC1CCCCC1 (stereo not shown) [Compound 51, 3-Amino-7-cyclohexylcarbamoylmethyl-4-thiophen-2-yl-6,7-dihydro-5H-cyclopenta[b]thieno[3,2-e]pyridine-2-carboxylic acid amide]	> 10 µM
NC(=O)c1sc2nc3c(c(-c4cccs4)c2c1N)CN(C(=S)Nc1ccc(F)cc1)C3 [Compound 88, 3-Amino-6-(4-fluoro-phenylthiocarbamoyl)-4-thiophen-2-yl-6,7-dihydro-5H-1-thia-6,8-diaza-s-indacene-2-carboxylic acid amide]	> 10 µM
